Data set [1] addresses Epidermal growth factor receptor (Homo sapiens, UniProt P00533, T790M). Put plainly: Inhibition of EGFR kinase T790M mutant (unknown origin) after 1.5 hrs by FRET-based Z'-Lyte assay. Type of data set: protein assay.
Data set [2] can be described thus: Cytotoxicity against human HCC827 cells expressing EGFR kinase E746 to A750 deletion mutant after 72 hrs by MTS assay. Type of data set: functional, cell-based. Conditions: HCC827, 72 h.
The test system of another data set is NCI-H1975. Put plainly: cells. Type of data set: functional, cell-based. Conditions: Homo sapiens, NCI-H1975, 72 h.
Data set [3] addresses Epidermal growth factor receptor (Homo sapiens, UniProt P00533). As to the kind of experiment: Inhibition of wild type EGFR kinase (unknown origin) after 1.5 hrs by FRET-based Z'-Lyte assay.
Data set [4] deals with Epidermal growth factor receptor (Homo sapiens, UniProt P00533, L858R/T790M). As to the kind of experiment: Inhibition of EGFR kinase L858R/T790M double mutant (unknown origin) after 1.5 hrs by FRET-based Z'-Lyte assay. Format: protein assay.
For data set [5], the target named is Epidermal growth factor receptor (Homo sapiens, UniProt P00533, L858R). As to the kind of experiment: Inhibition of EGFR kinase L858R mutant (unknown origin) after 1.5 hrs by FRET-based Z'-Lyte assay. Format: protein assay.
Sequence of Epidermal growth factor receptor (Homo sapiens, UniProt P00533, L858R) (P00533 25-1210 L858R limits assumed): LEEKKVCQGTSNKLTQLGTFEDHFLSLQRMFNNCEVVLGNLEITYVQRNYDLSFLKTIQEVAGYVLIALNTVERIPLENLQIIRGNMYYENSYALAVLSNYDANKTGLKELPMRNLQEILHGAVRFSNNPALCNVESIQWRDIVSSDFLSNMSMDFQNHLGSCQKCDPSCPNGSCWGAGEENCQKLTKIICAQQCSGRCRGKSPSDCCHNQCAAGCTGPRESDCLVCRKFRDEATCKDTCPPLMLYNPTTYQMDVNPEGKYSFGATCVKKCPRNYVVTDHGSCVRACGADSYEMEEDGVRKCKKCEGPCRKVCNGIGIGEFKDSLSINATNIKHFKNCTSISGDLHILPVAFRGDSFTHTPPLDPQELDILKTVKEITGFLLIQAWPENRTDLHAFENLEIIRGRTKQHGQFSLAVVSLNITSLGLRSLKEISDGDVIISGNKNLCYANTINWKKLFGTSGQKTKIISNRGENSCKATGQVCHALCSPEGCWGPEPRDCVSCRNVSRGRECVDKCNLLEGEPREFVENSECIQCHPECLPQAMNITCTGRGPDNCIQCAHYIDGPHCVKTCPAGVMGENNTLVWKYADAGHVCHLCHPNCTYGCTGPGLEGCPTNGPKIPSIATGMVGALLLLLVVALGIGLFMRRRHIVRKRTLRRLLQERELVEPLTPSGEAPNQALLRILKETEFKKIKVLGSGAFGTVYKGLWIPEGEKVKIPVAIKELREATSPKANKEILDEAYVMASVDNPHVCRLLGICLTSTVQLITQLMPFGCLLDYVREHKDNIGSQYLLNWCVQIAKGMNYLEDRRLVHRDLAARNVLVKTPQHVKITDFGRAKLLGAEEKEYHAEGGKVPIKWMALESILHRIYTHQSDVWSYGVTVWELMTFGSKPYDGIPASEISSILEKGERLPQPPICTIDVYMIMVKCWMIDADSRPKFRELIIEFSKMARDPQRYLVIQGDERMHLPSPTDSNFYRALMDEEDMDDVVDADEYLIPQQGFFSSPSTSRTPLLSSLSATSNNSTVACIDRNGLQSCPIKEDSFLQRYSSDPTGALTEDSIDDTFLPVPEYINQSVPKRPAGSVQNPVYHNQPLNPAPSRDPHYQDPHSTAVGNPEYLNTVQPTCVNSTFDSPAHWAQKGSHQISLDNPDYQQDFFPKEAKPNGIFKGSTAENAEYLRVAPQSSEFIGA
The nature of data set [6]: Cytotoxicity against human HL7702 cells expressing wild type EGFR after 72 hrs by MTS assay. Type of data set: ADME, cell-based. The note with it: L02, 72 h.
The target in data set [7] is Epidermal growth factor receptor (Homo sapiens, UniProt P00533, L861Q). As to the kind of experiment: Inhibition of EGFR kinase L861Q mutant (unknown origin) after 1.5 hrs by FRET-based Z'-Lyte assay. Type of data set: protein assay.
Sequence of Epidermal growth factor receptor (Homo sapiens, UniProt P00533, L861Q) (P00533 25-1210 L861Q limits assumed): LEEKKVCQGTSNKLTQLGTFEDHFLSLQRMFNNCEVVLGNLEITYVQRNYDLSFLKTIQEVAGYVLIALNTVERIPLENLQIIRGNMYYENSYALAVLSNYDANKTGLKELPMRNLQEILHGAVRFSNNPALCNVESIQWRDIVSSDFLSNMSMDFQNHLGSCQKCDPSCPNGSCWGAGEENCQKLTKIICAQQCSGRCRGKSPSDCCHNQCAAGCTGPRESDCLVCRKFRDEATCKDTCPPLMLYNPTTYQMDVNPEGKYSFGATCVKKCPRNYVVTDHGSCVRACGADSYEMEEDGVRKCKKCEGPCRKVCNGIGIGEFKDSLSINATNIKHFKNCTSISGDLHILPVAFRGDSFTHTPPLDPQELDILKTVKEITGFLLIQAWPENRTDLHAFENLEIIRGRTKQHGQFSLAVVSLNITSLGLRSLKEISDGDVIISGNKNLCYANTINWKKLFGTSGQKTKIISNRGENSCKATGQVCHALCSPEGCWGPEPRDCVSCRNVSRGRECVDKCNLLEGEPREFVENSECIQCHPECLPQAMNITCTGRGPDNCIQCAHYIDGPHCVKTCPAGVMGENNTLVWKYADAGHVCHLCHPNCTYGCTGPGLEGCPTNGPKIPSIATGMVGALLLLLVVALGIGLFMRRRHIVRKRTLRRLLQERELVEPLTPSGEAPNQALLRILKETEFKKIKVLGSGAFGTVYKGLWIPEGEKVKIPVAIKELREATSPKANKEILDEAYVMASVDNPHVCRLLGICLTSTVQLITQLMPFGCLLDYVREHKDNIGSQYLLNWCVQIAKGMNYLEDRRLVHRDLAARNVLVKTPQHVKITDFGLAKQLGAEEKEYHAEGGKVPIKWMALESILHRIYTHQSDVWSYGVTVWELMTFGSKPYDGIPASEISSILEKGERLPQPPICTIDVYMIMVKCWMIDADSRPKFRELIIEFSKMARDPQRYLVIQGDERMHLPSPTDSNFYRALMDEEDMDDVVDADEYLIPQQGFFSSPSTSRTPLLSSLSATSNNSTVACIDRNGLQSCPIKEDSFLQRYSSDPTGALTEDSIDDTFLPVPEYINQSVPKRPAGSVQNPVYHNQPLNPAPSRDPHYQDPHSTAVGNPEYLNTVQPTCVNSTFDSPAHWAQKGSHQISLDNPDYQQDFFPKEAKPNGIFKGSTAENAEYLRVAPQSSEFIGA
Data set [8] deals with Epidermal growth factor receptor (Homo sapiens), P00533 [L858R,T790M]. As to the kind of experiment: Inhibition of EGFR kinase L858R/T790M double mutant phosphorylation in human H1975 cells at >= 50 nM after 24 hrs by Western blotting analysis. Type of data set: cell-based.
Data set [9] can be described thus: Selectivity ratio of IC50 for human HL7702 cells expressing wild type EGFR to IC50 for human H1975 cells expressing EGFR kinase […]. The note with it: read-out: Ratio IC50. Type of data set: ADME, cell-based.
A short description of data set [10]: Selectivity ratio of IC50 for human HL7702 cells expressing wild type EGFR to IC50 for human H1975 cells expressing EGFR kinase L858R/T790M double mutant. Type of data set: ADME, cell-based. Conditions: read-out: Ratio IC50.
In data set [11] the test system is Epidermal growth factor receptor (Homo sapiens), P00533 [L858R,T790M]. As to the kind of experiment: Inhibition of EGFR kinase L858R/T790M double mutant phosphorylation in human H1975 cells after 24 hrs by Western blotting analysis. Type of data set: cell-based. For orientation: In western blotting, separated proteins are transferred to a membrane and probed.

Active and inactive are the calls of the source. The rule behind the calls is not given here.

Sequence of Epidermal growth factor receptor (Homo sapiens, UniProt P00533, T790M) (P00533 25-1210 T790M limits assumed): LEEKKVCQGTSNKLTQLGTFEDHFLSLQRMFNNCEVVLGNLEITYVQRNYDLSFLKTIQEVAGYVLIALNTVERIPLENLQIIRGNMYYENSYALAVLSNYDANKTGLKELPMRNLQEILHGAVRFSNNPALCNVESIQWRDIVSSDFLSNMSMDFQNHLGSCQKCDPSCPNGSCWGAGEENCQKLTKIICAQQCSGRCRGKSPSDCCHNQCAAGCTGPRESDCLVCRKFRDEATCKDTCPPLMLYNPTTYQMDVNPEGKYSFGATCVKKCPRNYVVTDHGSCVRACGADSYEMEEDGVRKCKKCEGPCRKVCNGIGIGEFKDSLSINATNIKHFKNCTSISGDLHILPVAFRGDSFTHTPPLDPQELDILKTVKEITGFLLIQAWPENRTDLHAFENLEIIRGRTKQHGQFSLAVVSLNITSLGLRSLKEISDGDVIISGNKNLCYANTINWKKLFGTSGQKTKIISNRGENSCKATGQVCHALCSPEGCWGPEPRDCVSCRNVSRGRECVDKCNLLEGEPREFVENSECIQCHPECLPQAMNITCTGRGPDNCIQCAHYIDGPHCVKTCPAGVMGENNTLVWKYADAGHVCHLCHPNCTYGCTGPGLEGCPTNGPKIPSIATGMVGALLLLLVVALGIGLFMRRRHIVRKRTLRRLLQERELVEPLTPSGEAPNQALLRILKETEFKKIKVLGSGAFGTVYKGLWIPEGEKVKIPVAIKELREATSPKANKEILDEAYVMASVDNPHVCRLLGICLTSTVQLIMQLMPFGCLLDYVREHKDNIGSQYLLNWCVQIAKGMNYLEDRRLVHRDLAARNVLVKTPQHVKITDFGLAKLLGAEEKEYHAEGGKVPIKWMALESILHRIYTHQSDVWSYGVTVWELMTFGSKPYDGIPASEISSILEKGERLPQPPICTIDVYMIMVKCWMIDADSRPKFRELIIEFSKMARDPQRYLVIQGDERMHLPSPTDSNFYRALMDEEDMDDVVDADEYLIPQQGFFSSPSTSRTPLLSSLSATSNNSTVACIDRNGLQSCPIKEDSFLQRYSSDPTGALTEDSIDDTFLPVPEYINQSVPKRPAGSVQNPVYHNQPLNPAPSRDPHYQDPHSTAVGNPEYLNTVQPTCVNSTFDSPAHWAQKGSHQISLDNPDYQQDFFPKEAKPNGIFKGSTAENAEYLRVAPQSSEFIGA
Sequence of Epidermal growth factor receptor (Homo sapiens, UniProt P00533) (P00533 whole entry): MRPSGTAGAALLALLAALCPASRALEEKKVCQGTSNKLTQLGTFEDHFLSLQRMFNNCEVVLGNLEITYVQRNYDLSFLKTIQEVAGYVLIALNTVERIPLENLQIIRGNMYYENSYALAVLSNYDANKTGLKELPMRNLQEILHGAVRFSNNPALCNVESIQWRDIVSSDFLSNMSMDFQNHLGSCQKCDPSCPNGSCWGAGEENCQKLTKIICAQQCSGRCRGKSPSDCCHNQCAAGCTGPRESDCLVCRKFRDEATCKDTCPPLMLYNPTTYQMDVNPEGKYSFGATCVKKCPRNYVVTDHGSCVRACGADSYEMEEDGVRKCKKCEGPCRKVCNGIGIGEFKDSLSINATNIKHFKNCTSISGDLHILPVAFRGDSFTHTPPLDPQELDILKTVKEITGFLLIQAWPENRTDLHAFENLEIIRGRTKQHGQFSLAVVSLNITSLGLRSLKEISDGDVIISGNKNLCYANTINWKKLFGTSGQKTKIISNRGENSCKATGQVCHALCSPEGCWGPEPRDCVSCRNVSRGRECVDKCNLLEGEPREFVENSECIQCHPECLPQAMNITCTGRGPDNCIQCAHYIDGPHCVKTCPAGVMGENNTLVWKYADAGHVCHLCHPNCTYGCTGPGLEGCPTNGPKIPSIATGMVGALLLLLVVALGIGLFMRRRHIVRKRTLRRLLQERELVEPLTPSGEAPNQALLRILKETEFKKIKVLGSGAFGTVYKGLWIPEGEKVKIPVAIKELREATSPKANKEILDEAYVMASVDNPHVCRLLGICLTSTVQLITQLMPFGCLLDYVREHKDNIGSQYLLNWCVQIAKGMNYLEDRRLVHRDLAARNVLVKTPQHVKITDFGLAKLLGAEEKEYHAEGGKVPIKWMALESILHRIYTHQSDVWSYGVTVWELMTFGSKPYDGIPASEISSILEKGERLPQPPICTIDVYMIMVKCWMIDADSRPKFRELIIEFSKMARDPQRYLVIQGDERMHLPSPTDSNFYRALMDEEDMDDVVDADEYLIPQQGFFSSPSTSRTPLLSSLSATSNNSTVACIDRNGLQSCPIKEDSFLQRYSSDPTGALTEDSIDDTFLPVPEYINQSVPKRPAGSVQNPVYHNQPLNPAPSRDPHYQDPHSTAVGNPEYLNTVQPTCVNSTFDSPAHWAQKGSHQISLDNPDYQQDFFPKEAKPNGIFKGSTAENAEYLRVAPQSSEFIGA

For orientation: IC50 means the point on the concentration scale where inhibition reaches its midpoint. Turning to `C=CC(=O)Nc1cccc(N2C(=O)C(C)N(C)C(=O)c3cnc(Nc4ccc(N5CCN(C)CC5)cc4OC)nc32)c1` (stereo not given), the IC50 in data set [1] worked out at 122 nM; in data set [2], 130 nM; in the data set with NCI-H1975, 920 nM; in data set [3], 22.1 nM; in data set [4], 50.9 nM; in data set [5], 41.6 nM. Moreover, the IC50 in data set [6] amounted to 49200 nM; in data set [7] it was 6.02 nM.

In the case of `C=CC(=O)Nc1cccc(N2C(=O)C(C(C)C)N(C)C(=O)c3cnc(Nc4ccc(N5CCN(C)CC5)cc4OC)nc32)c1` (stereo not given), the IC50 was 44 nM in data set [1]; 69 nM in [2]; 650 nM in the data set with NCI-H1975; 24.8 nM in data set [3]; 24.8 nM in data set [4]; 56.5 nM in [5]. Besides, the IC50 in [6] is 28200 nM; in data set [7], 24.1 nM.

For `C=CC(=O)Nc1cccc(N2C(=O)C(Cc3ccccc3)N(C)C(=O)c3cnc(Nc4ccc(N5CCN(C)CC5)cc4OC)nc32)c1` (stereo not given), the inhibition entry in [8] is “Active”. Besides, the IC50 in data set [1] stood at 16.5 nM; in data set [2], 24 nM; in the data set on NCI-H1975, 89 nM; in [3], 4.68 nM; in data set [4], 8.95 nM; in data set [5] it was 8.33 nM. Moreover, the IC50 worked out at 25600 nM in [6] and 5.3 nM in data set [7]. Further, the selectivity ratio in data set [9] and in data set [10] was 200 in each case. In [11], the inhibition result was “Dose-dependent effect”.

As to `C=CC(=O)Nc1cccc(N2C(=O)C3CCCCN3C(=O)c3cnc(Nc4ccc(N5CCN(C)CC5)cc4OC)nc32)c1` (stereo not given), the IC50 is 115 nM in data set [1]; 68 nM in [2]; 990 nM in the data set with NCI-H1975; 2.45 nM in data set [3]; 40.7 nM in data set [4]; 4.3 nM in [5]. For the same molecule, the IC50 in [6] came to 23000 nM; in data set [7], 2.74 nM.

`C=CC(=O)Nc1cccc(N2C(=O)C(Cc3ccc(F)cc3)N(C)C(=O)c3cnc(Nc4ccc(N5CCN(C)CC5)cc4OC)nc32)c1` (stereo not given): in data set [8], the inhibition entry is “Active”. Besides, the IC50 was found to be 17.9 nM in [1]; 71 nM in [2]; 69 nM in the data set with NCI-H1975; 5.78 nM in data set [3]; 14.1 nM in data set [4]; 24.5 nM in [5]. Moreover, the IC50 in [6] is 13700 nM; in [7] it was 7.57 nM. Moreover, the selectivity ratio in data set [9] and in [10] was 200 each time. Moreover, the inhibition entry in data set [11] is “Dose-dependent effect”.

For the molecule `C=CC(=O)Nc1cccc(N2C(=O)C(Cc3ccc(Cl)cc3)N(C)C(=O)c3cnc(Nc4ccc(N5CCN(C)CC5)cc4OC)nc32)c1` (stereo not given), the IC50 in data set [2] is 300 nM; in the data set with NCI-H1975 it was 470 nM; in data set [6] it was 8730 nM.

Take `C=CC(=O)Nc1cccc(N2C(=O)CN(Cc3ccccc3)C(=O)c3cnc(Nc4ccc(N5CCN(C)CC5)cc4OC)nc32)c1`: the IC50 in [1] is 84.2 nM; in data set [2], 87 nM; with NCI-H1975 it was 2590 nM; in data set [3] it was 6.26 nM; in data set [4], 32.8 nM; in data set [5], 9.12 nM. Further, the half-inhibitory concentration (IC50) in [6] was 17500 nM; in [7], 8.4 nM.

Turning to `C=CC(=O)Nc1cccc(N2C(=O)C(c3ccccc3)N(C)C(=O)c3cnc(Nc4ccc(N5CCN(C)CC5)cc4OC)nc32)c1` (stereo not given), the IC50 is 778 nM in [1]; 3820 nM in data set [2]; 5900 nM in the data set with NCI-H1975; 77.2 nM in data set [3]; over 1000 nM in [4]; 174 nM in data set [5]. The IC50 in data set [6] turned out to be 14300 nM; in [7] it was 77.1 nM.

Turning to `C=CC(=O)Nc1cccc(N2C(=O)C(Cc3ccc(OC)cc3)N(C)C(=O)c3cnc(Nc4ccc(N5CCN(C)CC5)cc4OC)nc32)c1` (stereo not given), the IC50 turned out to be 88.3 nM in data set [1]; 280 nM in [2]; 820 nM in the data set with NCI-H1975; 33.9 nM in data set [3]; 53.9 nM in data set [4]; 50 nM in data set [5]. The figures for the IC50 in data set [6] and in data set [7] were 16200 nM and 97.1 nM, respectively.

As for `C=CC(=O)Nc1cccc(Oc2nc(Nc3ccc(N4CCN(C)CC4)cc3OC)ncc2Cl)c1`, the IC50 in [2] turned out to be 24 nM; with NCI-H1975, 87 nM; in data set [6], 9150 nM.

Regarding `C=CC(=O)Nc1cccc(N2C(=O)C3CCCN3C(=O)c3cnc(Nc4ccc(N5CCN(C)CC5)cc4OC)nc32)c1` (stereo not given), the IC50 in data set [1] was over 1000 nM; in data set [2], 6900 nM; in the data set with NCI-H1975 it was 31400 nM; in [3], over 1000 nM; in [4], over 1000 nM; in data set [5] it was over 1000 nM. Further, the figures for the IC50 in data set [6] and in data set [7] were 16100 nM and over 1000 nM, respectively.

Turning to `C=CC(=O)Nc1cccc(N2C(=O)CN(c3ccccc3)C(=O)c3cnc(Nc4ccc(N5CCN(C)CC5)cc4OC)nc32)c1`, the IC50 in [1] was 221 nM; in data set [2], 140 nM; in the data set on NCI-H1975 it was 9190 nM; in [3], 6.99 nM; in data set [4], 194 nM; in data set [5], 30.7 nM. The IC50 in [6] was 1710 nM; in data set [7], 6.86 nM.

As to `C=CC(=O)Nc1cccc(N2C(=O)C(C(C)CC)N(C)C(=O)c3cnc(Nc4ccc(N5CCN(C)CC5)cc4OC)nc32)c1` (stereo not given), the IC50 in data set [1] stood at 86.8 nM; in [2] it was 600 nM; in the data set with NCI-H1975, 1110 nM; in [3] it was 10.2 nM; in [4], 87.5 nM; in data set [5], 13.2 nM. Also, the IC50 turned out to be 15000 nM in [6] and 7.25 nM in [7].

Regarding `C=CC(=O)Nc1cccc(N2C(=O)CN(C)C(=O)c3cnc(Nc4ccc(N5CCN(C)CC5)cc4OC)nc32)c1`, the IC50 in [1] stood at 110 nM; in data set [2] it was 1680 nM; with NCI-H1975, 11700 nM; in data set [3], 9.14 nM; in data set [4], 52.6 nM; in [5], 15.1 nM. The values for the IC50 in data set [6] and in data set [7] were 44500 nM and 22.3 nM, respectively.

The record behind these values is ChEMBL document CHEMBL3217539, “Design, synthesis and biological evaluation of new molecules inhibiting epidermal growth factor receptor threonine790 methionine790 mutant” (Medchemcomm, 2012).
